For the assay, the system named is monomeric soluble HIV-1AD8 gp120. As to the kind of experiment: Antibody recognition of monomeric gp120. It is filed as binding. The note with it: 10 μM; CD4-Ig, CD4BS bNAbs, 17b. As for the experimental part: Antibody recognition of monomeric gp120: To produce gp120 monomers, a stop codon was introduced into the HIV-1AD8 env gene sequence encoding the gp120-gp4l junction. […] The supernatants were clarified by low-speed centrifugation and 0.45-μ filtration, and then used for precipitation by antibodies in the absence or presence of 10 μM BMS-806. Precipitates were Western blotted with a goat anti-gp120 polyclonal antibody (ThermoFisher) and 1:3000 HRP-conjugated rabbit anti-goat IgG antibody (ThermoFisher).

For `COc1ccnc2[nH]cc(C(=O)C(=O)N3CCN(C(=O)c4ccccc4)C[C@H]3C)c12` [BMS-806, reference compound], the “Ligand binding to monomeric gp120” value was “mildly decreased gp120 binding”.
